Series [1] relates to Oryza sativa L-myo-inositol 1-phosphate synthase (RINO), native. The note with it: data from RayChaudhury et al. (1997); cited from earlier work.
The nature of series [2]: pH and temperature optimum of enzyme activity. The class given is biochemical. Here is the method:
The purified bacterially expressed RINO1 and PINO1 proteins were characterized for their biochemical properties (Table-1). […] For both the cases optimum enzyme activity was at 37° C. whereas optimum pH for Porteresia recombinant synthase (PINO1) was 8.0 and the same for Oryza recombinant synthase (RINO1) was 7.5.

For series [3] the following is noted: not told.
Description: FIG. 5: Gel filtration pattern on Superose-12 of RINO1 and PINO1 proteins in absence and presence of 400 mM NaCl. (A) RINO1 without NaCl; (B) RINO1 with NaCl; (C) PINO1 without NaCl; (D) PINO1 with NaCl. Insets depict SDS-PAGE and immuno dot blots of indicated fractions.
Series [4] is described as follows: Tryptophan fluorescence in increasing NaCl concentrations. The note with it: recombinant preparations. The class given is physicochemical. Here is the method: FIG. 4: Tryptophan fluorescence of purified RINO1 (A) and PINO1 (B) proteins in increasing NaCl concentrations; tracing 1,2,3 & 4 correspond to 0, 100 mM, […] and 400 mM NaCl in the system.
Tryptophan Fluorescence spectra of the recombinant preparations of the inositol synthase(s) from Oryza sativa (RINO1) and Porteresia coarctata (PINO1) are shown in Panel A and B respectively in FIG. 4. […] The emission maxima in both the cases remain close to 336 nm.

A short description of series [5]: Inositol synthase activity in presence of increasing NaCl concentration. The note with it: NaCl in vitro. The class given is biochemical. The source says: With respect to salt-sensitivity, RINO1 and PINO1 proteins differ a great deal.
FIG. 3: Inositol synthase activity in presence of increasing NaCl concentration for purified native (A) and recombinant (B) enzymes.

For series [6] the following is noted: enzyme activity; data from RayChaudhury et al. (1997); cited from earlier work.

Read-outs that look alike come from different tables or passages of the source.

For the compound `O=P(O)(O)OC[C@H]1OC(O)[C@H](O)[C@@H](O)[C@@H]1O` (stereo partly shown) [G6P, Glucose 6 phosphate], in series [1], the Km was 1970 µM and the Vmax is recorded as 0.07 μmol^−m.
With `NC(=O)c1ccc[n+]([C@@H]2O[C@H](COP(=O)([O-])OP(=O)(O)OC[C@H]3O[C@@H](n4cnc5c(N)ncnc54)[C@H](O)[C@@H]3O)[C@@H](O)[C@H]2O)c1` [NAD], in series [1], the Km is 140 µM and the Vmax was 0.09 μmol^−m.
Take “L-myo-inositol 1-phosphate synthase [PINO Native]”: in series [2], the “Temperature Optimum” value was 35 °C and the pH optimum was 7.5.
Turning to “L-myo-inositol 1-phosphate synthase [PINO Recombinant]”, in series [2], the “Temperature Optimum” value turned out to be 37 °C and the pH optimum is reported as 8.0. Also, in series [2] (listed as PINO1), the “Temperature Optimum” value was found to be 37 °C and the pH optimum is listed as 8.0. Moreover, the “Gel-permeation elution pattern on addition of salt” value in series [3] was “elutes at the same place”. The “Tryptophan fluorescence intensity in presence of added salt” value in series [4] (listed as PINO1) is on record as “rather insensitive”.
For “L-myo-inositol 1-phosphate synthase [RINO Native]”, the “salt-sensitivity of inositol synthase activity” value in series [5] was “sensitive to NaCl”. Also, in series [6], the “Temperature Optimum” value was 35 °C and the pH optimum is 8.2.
“L-myo-inositol 1-phosphate synthase [RINO Recombinant]”: in series [5], the “salt-sensitivity of inositol synthase activity” value is on record as “sensitive to NaCl”. The “Temperature Optimum” value in series [2] and in series [2] (listed as RINO1) was 37 °C in each case. In addition, the pH optimum in series [2] and in series [2] (listed as RINO1) was 7.5 in each case. For the same compound, the “Gel-permeation elution pattern on addition of salt” value in series [3] is “substantial reduction in the original peak and concurrent appearance of a high molecular weight fraction”. Also, in series [4] (listed as RINO1), the “Tryptophan fluorescence intensity in presence of added salt” value is “quenched significantly”.

In general, Km refers to the substrate concentration at which the rate is half of its maximum.

These data come from US20060148059A1, “Salt tolerant l-myo-inositol 1-phosphate synthase and the process of obtaining the same” (priority 2002, published 2006).
